Results from patent US7574340B2 (priority 2003, dated 2009).

Tests used:
BoNT/A LC [1] = target: T1, BoNT/A LC (Clostridium botulinum, UniProt P0DPI0); assay: biochemical; format: biochemical
[2] = target: BoNT serotype B light chain (BoNT/B LC) (Clostridium botulinum, UniProt P10844); format: biochemical
anthrax lethal factor = anthrax lethal factor (Bacillus anthracis, UniProt P15917); format: biochemical
BoNT/A holotoxin = BoNT/A holotoxin (Clostridium botulinum, UniProt P0DPI0); settings: 3.3 μM; cited from earlier work
Chain of BoNT/A holotoxin (P0DPI0 2-448 limits assumed): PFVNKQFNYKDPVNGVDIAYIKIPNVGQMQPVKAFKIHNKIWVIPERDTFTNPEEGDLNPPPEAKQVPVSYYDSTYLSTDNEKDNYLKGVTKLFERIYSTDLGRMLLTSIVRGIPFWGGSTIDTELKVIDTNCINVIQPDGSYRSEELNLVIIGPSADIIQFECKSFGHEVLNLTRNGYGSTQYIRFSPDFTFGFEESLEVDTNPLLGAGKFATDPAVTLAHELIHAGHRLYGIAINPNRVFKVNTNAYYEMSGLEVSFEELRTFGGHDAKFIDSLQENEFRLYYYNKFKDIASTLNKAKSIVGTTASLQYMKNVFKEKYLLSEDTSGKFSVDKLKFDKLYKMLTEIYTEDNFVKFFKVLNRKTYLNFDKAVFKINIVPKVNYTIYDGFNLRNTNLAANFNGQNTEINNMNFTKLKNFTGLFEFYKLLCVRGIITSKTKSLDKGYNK
Chain of BoNT/A holotoxin (P0DPI0 449-1296 limits assumed): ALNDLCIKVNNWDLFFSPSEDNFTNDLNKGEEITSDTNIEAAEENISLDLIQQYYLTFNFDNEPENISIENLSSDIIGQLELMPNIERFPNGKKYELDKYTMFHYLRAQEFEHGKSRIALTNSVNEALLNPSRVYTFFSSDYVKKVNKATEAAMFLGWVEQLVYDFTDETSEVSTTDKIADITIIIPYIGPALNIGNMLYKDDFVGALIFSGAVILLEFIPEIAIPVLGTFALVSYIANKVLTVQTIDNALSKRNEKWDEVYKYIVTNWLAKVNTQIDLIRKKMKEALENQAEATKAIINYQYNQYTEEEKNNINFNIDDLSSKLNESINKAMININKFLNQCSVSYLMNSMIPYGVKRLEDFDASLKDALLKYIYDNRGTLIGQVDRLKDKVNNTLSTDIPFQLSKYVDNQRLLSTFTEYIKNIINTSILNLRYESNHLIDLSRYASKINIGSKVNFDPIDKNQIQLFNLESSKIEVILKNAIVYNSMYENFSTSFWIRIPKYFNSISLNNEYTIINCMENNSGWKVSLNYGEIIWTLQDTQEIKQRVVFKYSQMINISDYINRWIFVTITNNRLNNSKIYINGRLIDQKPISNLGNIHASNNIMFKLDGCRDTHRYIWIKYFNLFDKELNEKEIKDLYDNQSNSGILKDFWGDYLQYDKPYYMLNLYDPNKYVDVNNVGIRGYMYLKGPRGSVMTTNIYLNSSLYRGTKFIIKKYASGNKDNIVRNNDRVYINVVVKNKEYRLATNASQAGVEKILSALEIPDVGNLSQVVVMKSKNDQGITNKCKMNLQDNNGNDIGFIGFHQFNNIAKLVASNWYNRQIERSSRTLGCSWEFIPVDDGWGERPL

BoNT/A LC [3] = target: T1, BoNT/A LC; settings: cited from earlier work

T1 sequence (P0DPI0 2-448 limits assumed): as the sequence (P0DPI0 2-448 limits assumed) above
Chain of anthrax lethal factor (P15917 34-809 limits assumed): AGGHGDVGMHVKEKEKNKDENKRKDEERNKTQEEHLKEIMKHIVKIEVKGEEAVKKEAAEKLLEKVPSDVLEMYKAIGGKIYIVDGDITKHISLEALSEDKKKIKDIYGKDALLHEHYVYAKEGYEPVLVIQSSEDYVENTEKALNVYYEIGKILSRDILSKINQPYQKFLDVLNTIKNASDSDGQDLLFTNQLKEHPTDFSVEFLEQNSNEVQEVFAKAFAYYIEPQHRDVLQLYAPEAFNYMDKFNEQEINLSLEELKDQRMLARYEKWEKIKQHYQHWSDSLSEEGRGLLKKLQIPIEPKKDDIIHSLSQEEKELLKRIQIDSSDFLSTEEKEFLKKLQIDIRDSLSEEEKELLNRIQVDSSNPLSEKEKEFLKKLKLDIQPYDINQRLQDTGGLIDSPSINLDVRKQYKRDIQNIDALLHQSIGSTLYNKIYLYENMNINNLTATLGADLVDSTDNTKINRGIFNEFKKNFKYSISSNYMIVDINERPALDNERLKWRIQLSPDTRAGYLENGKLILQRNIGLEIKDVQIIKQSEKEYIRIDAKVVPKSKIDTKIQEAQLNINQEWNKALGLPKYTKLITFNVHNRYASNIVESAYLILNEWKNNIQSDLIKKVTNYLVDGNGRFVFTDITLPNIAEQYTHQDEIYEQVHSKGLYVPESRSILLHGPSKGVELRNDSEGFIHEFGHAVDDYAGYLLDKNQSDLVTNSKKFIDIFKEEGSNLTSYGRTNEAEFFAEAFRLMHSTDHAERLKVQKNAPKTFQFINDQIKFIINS
Chain of BoNT serotype B light chain (BoNT/B LC) (P10844 2-441 limits assumed): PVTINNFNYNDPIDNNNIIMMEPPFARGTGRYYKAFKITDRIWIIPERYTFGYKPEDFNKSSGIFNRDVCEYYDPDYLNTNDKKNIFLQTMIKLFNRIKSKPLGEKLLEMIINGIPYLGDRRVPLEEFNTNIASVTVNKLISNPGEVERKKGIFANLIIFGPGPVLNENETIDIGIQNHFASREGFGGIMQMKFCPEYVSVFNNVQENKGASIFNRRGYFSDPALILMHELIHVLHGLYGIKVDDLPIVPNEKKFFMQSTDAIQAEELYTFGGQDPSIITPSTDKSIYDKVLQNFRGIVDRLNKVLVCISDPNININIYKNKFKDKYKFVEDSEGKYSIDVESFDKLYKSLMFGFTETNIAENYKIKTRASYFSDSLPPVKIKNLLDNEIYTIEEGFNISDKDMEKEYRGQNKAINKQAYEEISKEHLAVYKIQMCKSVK

Compound: Quinidine
- % Inhibition (BoNT/A LC [1]): 9 3%

Compound: CCN(CC)Cc1cc(Nc2ccnc3cc(Cl)ccc23)ccc1O [Amodiaquine]
- % Inhibition (BoNT/A LC [1]): 20%
- inhibition at 20 µM (BoNT/A LC [1]): 30%

Compound: O=[N+]([O-])c1cc(Cc2cc([N+](=O)[O-])c3cccnc3c2O)c(O)c2ccccc12 [NSC 130796]
- inhibition at 20 µM (BoNT/A LC [1]): 48%
- inhibition of BoNT/B LC protease activity (in words) [2]: inhibit
- inhibition of anthrax lethal factor (in words) (anthrax lethal factor): inhibit

Compound: Nc1c(/C=C/c2cc3cc(C4=NCCN4)ccc3o2)[nH]c2cc(C3=NCCN3)ccc12 [NSC 357756]
- inhibition at 20 µM (BoNT/A LC [1]): 57%

Compound: CCN(CC)CCCC(C)Nc1c2ccc(Cl)cc2nc2ccc(OC)cc12 (racemic) [Quinacrine (racemic), Quinacrine]
- inhibition at 20 µM (BoNT/A LC [1]): 30%
- delay of the time to about 50% muscle paralysis (over control) (BoNT/A holotoxin): at least 30%

Compound: CCOc1ccc2c(ccc(/C=C/c3ccc4c(C)ccnc4c3O)[n+]2C)c1 [NSC 86372]
- effect of addition of zinc on inhibition (BoNT/A LC [1]): immediately and quantitatively reversed inhibition
- inhibition at 20 µM (BoNT/A LC [1]): 51%
- inhibition of BoNT/B LC protease activity (in words) [2]: inhibit
- inhibition of anthrax lethal factor (in words) (anthrax lethal factor): inhibit

Compound: NCCCC[C@H](N[C@@H](CCc1ccccc1)C(=O)O)C(=O)N1CCC[C@H]1C(=O)O [lysinopril]
- BoNT/A LC inhibition (in words) (BoNT/A LC [3]): inhibited by mM concentrations

Compound: [Ag+] [silver ion]
- effect of addition of DTT on inhibition (BoNT/A LC [1]): immediately reversed inhibition
- effect of zinc in assays on inhibition (BoNT/A LC [1]): no effect
- inhibition of protease activity (BoNT/A LC [1]): about 100%

Compound: C[C@H](CS)C(=O)N1CCC[C@H]1C(=O)O [captopril]
- BoNT/A LC inhibition (in words) (BoNT/A LC [3]): inhibited by mM concentrations

Compound: CCOC(=O)[C@H](CCc1ccccc1)N[C@@H](C)C(=O)N1CCC[C@H]1C(=O)O [enalapril]
- BoNT/A LC inhibition (in words) (BoNT/A LC [3]): inhibited by mM concentrations

Compound: O=C(O)c1c(I)c(I)c(I)c(I)c1C1c2ccc(O)cc2Oc2cc(O)ccc21 [NSC 119889]
- inhibition at 20 µM (BoNT/A LC [1]): 56%

Compound: Ic1ccc2nc3cc(Nc4ccc5c(c4)nc4ccc(I)cc4[n+]5-c4ccccc4)ccc3[n+](-c3ccccc3)c2c1 [NSC 402959]
- inhibition at 20 µM (BoNT/A LC [1]): 40%

Compound: Quinine
- % Inhibition (BoNT/A LC [1]): 9 3%

Compound: COc1cc(C)cc2c(-c3c(O)cc(O)c4c3C[C@@H](C)N[C@@H]4C)cc(-c3cc(-c4c(O)cc(O)c5c4C[C@@H](C)N[C@@H]5C)c4cc(C)cc(OC)c4c3O)c(O)c12 [NSC 661755, Michellamine B]
- effect of added zinc on inhibition of BoNT/A LC (BoNT/A LC [1]): not affected by added zinc
- inhibition at 20 µM (BoNT/A LC [1]): 62%

Compound: CCN(CC)CCCC(C)Nc1ccnc2cc(Cl)ccc12 (racemic) [Chloroquine (racemic), Chloroquine]
- inhibition at 20 µM (BoNT/A LC [1]): 20%
